{"source": "patent US10336762B2", "about": "(priority 2017, dated 2019)", "key": {"TNFα": {"test_system": "TNFα", "assay": "cells", "assay_type": "cell-based, human", "conditions": "Homo sapiens, Monocyte, LPS-stimulated human monocytes, read-out: EC50 TNF"}, "IRAK4 enzyme": {"biological_target": "IRAK4 enzyme (Homo sapiens (Human), UniProt Q9NWZ3)", "sequence (Q9NWZ3 whole entry)": "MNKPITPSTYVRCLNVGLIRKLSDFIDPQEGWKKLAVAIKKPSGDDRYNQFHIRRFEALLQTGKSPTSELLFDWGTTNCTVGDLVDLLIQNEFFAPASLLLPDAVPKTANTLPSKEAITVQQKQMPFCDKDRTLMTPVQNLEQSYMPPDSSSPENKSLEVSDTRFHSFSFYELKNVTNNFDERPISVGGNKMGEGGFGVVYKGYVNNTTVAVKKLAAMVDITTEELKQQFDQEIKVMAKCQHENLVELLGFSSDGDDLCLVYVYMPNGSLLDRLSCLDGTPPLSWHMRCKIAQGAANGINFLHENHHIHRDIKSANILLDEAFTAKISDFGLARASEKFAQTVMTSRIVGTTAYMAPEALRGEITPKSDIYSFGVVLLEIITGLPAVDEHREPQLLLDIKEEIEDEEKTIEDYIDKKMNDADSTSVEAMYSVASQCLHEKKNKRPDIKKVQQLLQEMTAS", "assay": "biochemical", "assay_type": "biochemical", "conditions": "IRAK4 enzyme, 500 μM ATP"}}, "note": "Read-outs that look alike come from different tables or passages of the source.", "data": [{"smiles": "CC(C)(O)[C@H](F)CNC(=O)c1cnc(-c2ccc3cc(C#N)cnn23)cc1NC12CCC(C(=O)NC3CC3)(CC1)CC2", "note": "[Example 406, (R)-6-(3-cyanopyrrolo[1,2-b]pyridazin-7-yl)-4-((4-(cyclopropylcarbamoyl)bicyclo[2.2.2]octan-1-yl)amino)-N-(2-fluoro-3-hydroxy-3-methylbutyl) nicotinamide]", "values": [{"measurement": "EC50", "setting": "TNFα; TNFα content", "value": 33, "unit": "nM"}, {"measurement": "IC50", "setting": "IRAK4 enzyme; TR-FRET (HTRF)", "value": 1, "unit": "nM"}]}, {"smiles": "CC(C)(O)[C@H](F)CNC(=O)c1cnc(-c2ccc3cc(C#N)cnn23)cc1Nc1cncc(C(F)F)c1", "note": "[Example 226, (R)-6-(3-cyanopyrrolo[1,2-b]pyridazin-7-yl)-4-((5-(difluoromethyl)pyridin-3-yl)amino)-N-(2-fluoro-3-hydroxy-3-methylbutyl)nicotinamide]", "values": [{"measurement": "EC50", "setting": "TNFα; TNFα content", "value": 75, "unit": "nM"}, {"measurement": "IC50", "setting": "IRAK4 enzyme; TR-FRET", "value": "< 1", "unit": "nM"}]}, {"smiles": "COC(=O)N1C[C@@H]2[C@H](C1)[C@H]2Nc1cc(-c2ccc3cc(C#N)cnn23)ncc1C(=O)NC[C@@H](F)C(C)(C)O", "note": "[Example 722, (1R,5S,6s)-methyl 6-((2-(3-cyanopyrrolo[1,2-b]pyridazin-7-yl)-5-(((R)-2-fluoro-3-hydroxy-3-methyl-butyl)carbamoyl)pyridin-4-yl)amino)-3-aza-bicyclo[3.1.0]hexane-3-carboxylate]", "values": [{"measurement": "EC50", "setting": "TNFα; TNFα content", "value": 35, "unit": "nM"}, {"measurement": "IC50", "setting": "IRAK4 enzyme; TR-FRET (HTRF)", "value": "< 1", "unit": "nM"}]}, {"smiles": "CC(C)(O)[C@H](F)CNC(=O)c1cnc(-c2ccc3cc(C#N)cnn23)cc1Nc1cnc2c(c1)OCCN2", "note": "[Example 855, (R)-6-(3-cyanopyrrolo[1,2-b]pyridazin-7-yl)-4-((3,4-dihydro-2H-pyrido[3,2-b][1,4]oxazin-7-yl)amino)-N-(2-fluoro-3-hydroxy-3-methylbutyl)nicotinamide]", "values": [{"measurement": "EC50", "setting": "TNFα; TNFα by TR-FRET", "value": 9, "unit": "nM"}, {"measurement": "IC50", "setting": "IRAK4 enzyme; TR-FRET", "value": "< 1", "unit": "nM"}]}, {"smiles": "CC(C)(O)[C@H](F)CNC(=O)c1cnc(-c2ccc3cc(C#N)cnn23)cc1Nc1ccc(-n2cnnc2)cc1", "note": "[Example 772, (R)-4-((4-(4H-1,2,4-triazol-4-yl)phenyl)amino)-6-(3-cyanopyrrolo[1,2-b]pyridazin-7-yl)-N-(2-fluoro-3-hydroxy-3-methylbutyl)nicotinamide]", "values": [{"measurement": "EC50", "setting": "TNFα; TNFα content", "value": 14, "unit": "nM"}, {"measurement": "IC50", "setting": "IRAK4 enzyme; TR-FRET (HTRF)", "value": "< 1", "unit": "nM"}]}, {"smiles": "CC(C)Nc1cc(-c2ccc3cc(C#N)cnn23)ncc1C(=O)N[C@H]1CC[C@H](NC(=O)C2CC2)CC1", "note": "[Example 125, 6-(3-cyanopyrrolo[1,2-b]pyridazin-7-yl)-N-((1r,4r)-4-(cyclopropane-carboxamido)cyclohexyl)-4-(isopropyl-amino)nicotinamide]", "values": [{"measurement": "EC50", "setting": "TNFα; TNFα content", "value": 114, "unit": "nM"}, {"measurement": "IC50", "setting": "IRAK4 enzyme; TR-FRET", "value": 1, "unit": "nM"}]}, {"smiles": "CC(C)(O)[C@H](F)CNC(=O)c1cnc(-c2ccc3cc(C#N)cnn23)cc1N[C@H]1C[C@@H](CO)C1", "note": "[Example 730]", "values": [{"measurement": "EC50", "setting": "TNFα; TNFα content", "value": 40, "unit": "nM"}, {"measurement": "IC50", "setting": "IRAK4 enzyme; TR-FRET (HTRF)", "value": "< 1", "unit": "nM"}]}, {"smiles": "CNC(=O)c1cnc(-c2ccc3cc(C#N)cnn23)cc1N[C@H]1CC[C@@H](C(=O)NC)C1", "note": "[Example 465, 6-(3-cyanopyrrolo[1,2-b]pyridazin-7-yl)-N-methyl-4-(((1S,3R)-3-(methyl-carbamoyl)cyclopentyl)amino)nicotinamide]", "values": [{"measurement": "EC50", "setting": "TNFα; TNFα content", "value": 411, "unit": "nM"}, {"measurement": "IC50", "setting": "IRAK4 enzyme; TR-FRET (HTRF)", "value": 8, "unit": "nM"}]}, {"smiles": "CC(C)NC(=O)c1cnc(-c2ccc3cc(C#N)cnn23)cc1NC(C)C", "note": "[Example 369, 6-(3-cyanopyrrolo[1,2-b]pyridazin-7-yl)-N-isopropyl-4-(isopropylamino)nicotinamide]", "values": [{"measurement": "EC50", "setting": "TNFα; TNFα content", "value": 922, "unit": "nM"}, {"measurement": "IC50", "setting": "IRAK4 enzyme; TR-FRET", "value": 16, "unit": "nM"}]}, {"smiles": "COC(=O)N1CC[C@@H](CNC(=O)c2cnc(-c3ccc4cc(C#N)cnn34)cc2NC23CCC(O)(CC2)CC3)C1", "note": "[Example 742, (S)-methyl 3-((6-(3-cyano-pyrrolo[1,2-b]pyridazin-7-yl)-4-((4-hydroxy-bicyclo[2.2.2]octan-1-yl)amino)nicotinamido)methyl)pyrrolidine-1-carboxylate]", "values": [{"measurement": "EC50", "setting": "TNFα; TNFα content", "value": 126, "unit": "nM"}, {"measurement": "IC50", "setting": "IRAK4 enzyme; TR-FRET (HTRF)", "value": 1, "unit": "nM"}]}, {"smiles": "COC(=O)N1CC[C@H](CNC(=O)c2cnc(-c3ccc4cc(C#N)cnn34)cc2NC23CCC(O)(CC2)CC3)C1", "note": "[Example 741, (R)-methyl 3-((6-(3-cyano-pyrrolo[1,2-b]pyridazin-7-yl)-4-((4-hydroxybicyclo[2.2.2]octan-1-yl)amino)nicotin-amido)methyl)pyrrolidine-1-carboxylate]", "values": [{"measurement": "EC50", "setting": "TNFα; TNFα content", "value": 124, "unit": "nM"}, {"measurement": "IC50", "setting": "IRAK4 enzyme; TR-FRET (HTRF)", "value": "< 1", "unit": "nM"}]}, {"smiles": "COc1ccc2nc(Nc3cc(-c4ccc5cc(C#N)cnn45)ncc3C(=O)NC[C@@H](F)C(C)(C)O)sc2c1", "note": "[Example 376, (R)-6-(3-cyanopyrrolo[1,2-b]pyridazin-7-yl)-N-(2-fluoro-3-hydroxy-3-methylbutyl)-4-((6-methoxybenzo[d]thiazol-2-yl)amino)nicotinamide]", "values": [{"measurement": "EC50", "setting": "TNFα; TNFα content", "value": 736, "unit": "nM"}, {"measurement": "IC50", "setting": "IRAK4 enzyme; TR-FRET", "value": 2, "unit": "nM"}]}, {"smiles": "CC(C)C(=O)NCc1ccc(Nc2cc(-c3ccc4cc(C#N)cnn34)ncc2C(=O)NC[C@@H](F)C(C)(C)O)cc1", "note": "[Example 203, (R)-6-(3-cyanopyrrolo[1,2-b]pyridazin-7-yl)-N-(2-fluoro-3-hydroxy-3-methylbutyl)-4-((4-(isobutyramidomethyl)phenyl)amino) nicotinamide]", "values": [{"measurement": "EC50", "setting": "TNFα; TNFα content", "value": 44, "unit": "nM"}, {"measurement": "IC50", "setting": "IRAK4 enzyme; TR-FRET", "value": "< 1", "unit": "nM"}]}, {"smiles": "CC(C)(O)[C@H](F)CNC(=O)c1cnc(-c2ccc3cc(C#N)cnn23)cc1NCCC(C)(N)C(F)(F)F", "note": "(stereo partly drawn) [Example 562, 4-((3-amino-4,4,4-trifluoro-3-methylbutyl)amino)-6-(3-cyanopyrrolo[1,2-b]pyridazin-7-yl)-N-((R)-2-fluoro-3-hydroxy-3-methylbutyl)nicotinamide]", "values": [{"measurement": "EC50", "setting": "TNFα; TNFα content", "value": 75, "unit": "nM"}, {"measurement": "IC50", "setting": "IRAK4 enzyme; TR-FRET (HTRF)", "value": 1, "unit": "nM"}]}, {"smiles": "CC1(C(=O)N2CCC(Nc3cc(-c4ccc5cc(C#N)cnn45)ncc3C(=O)NC[C@@H](F)C(C)(C)O)CC2)COC1", "note": "[Example 325, (R)-6-(3-cyanopyrrolo[1,2-b]pyridazin-7-yl)-N-(2-fluoro-3-hydroxy-3-methylbutyl)-4-((1-(3-methyloxetane-3-carbonyl)piperidin-4-yl)amino)nicotinamide]", "values": [{"measurement": "EC50", "setting": "TNFα; TNFα content", "value": 228, "unit": "nM"}, {"measurement": "IC50", "setting": "IRAK4 enzyme; TR-FRET", "value": 3, "unit": "nM"}]}, {"smiles": "CC(C)(O)[C@H](F)CNC(=O)c1cnc(-c2ccc3cc(C#N)cnn23)cc1Nc1ccc(CN2CCOC2=O)cc1", "note": "[Example 201, (R)-6-(3-cyanopyrrolo[1,2-b]pyridazin-7-yl)-N-(2-fluoro-3-hydroxy-3-methylbutyl)-4-((4-((2-oxooxazolidin-3-yl)methyl)phenyl)amino) nicotinamide]", "values": [{"measurement": "EC50", "setting": "TNFα; TNFα content", "value": 11, "unit": "nM"}, {"measurement": "IC50", "setting": "IRAK4 enzyme; TR-FRET", "value": 1, "unit": "nM"}]}, {"smiles": "CO[C@@H]1CCC[C@H](Nc2cc(-c3ccc4cc(C#N)cnn34)ncc2C(=O)NC[C@@H](F)C(C)(C)O)C1", "note": "[Example 62, 6-(3-cyanopyrrolo[1,2-b]pyridazin-7-yl)-N-((R)-2-fluoro-3-hydroxy-3-methylbutyl)-4-(((1S,3R)-3-methoxycyclohexyl)amino) nicotinamide]", "values": [{"measurement": "EC50", "setting": "TNFα; TNFα content", "value": 83, "unit": "nM"}, {"measurement": "IC50", "setting": "IRAK4 enzyme; TR-FRET", "value": "< 1", "unit": "nM"}]}, {"smiles": "CC(C)Nc1cc(-c2ccc3cc(C#N)cnn23)ncc1C(=O)NC1COC1", "note": "[Example 7, 6-(3-cyanopyrrolo[1,2-b]pyridazin-7-yl)-4-(isopropylamino)-N-(oxetan-3-yl)nicotinamide]", "values": [{"measurement": "EC50", "setting": "TNFα; TNFα content", "value": 442, "unit": "nM"}, {"measurement": "IC50", "setting": "IRAK4 enzyme; TR-FRET", "value": 5, "unit": "nM"}]}, {"smiles": "CC(C)Nc1cc(-c2ccc3cc(C#N)cnn23)ncc1C(=O)NC1CS(=O)(=O)C1", "note": "[Example 71, 6-(3-cyanopyrrolo[1,2-b]pyridazin-7-yl)-N-(1,1-dioxidothietan-3-yl)-4-(isopropylamino) nicotinamide]", "values": [{"measurement": "EC50", "setting": "TNFα; TNFα content", "value": 298, "unit": "nM"}, {"measurement": "IC50", "setting": "IRAK4 enzyme; TR-FRET", "value": 9, "unit": "nM"}]}, {"smiles": "CC(C)(O)[C@H](F)CNC(=O)c1cnc(-c2ccc3cc(C#N)cnn23)cc1Nc1ccc(OC(F)F)nc1", "note": "[Example 597, (R)-6-(3-cyano-pyrrolo[1,2-b]pyridazin-7-yl)-4-((6-(difluoro-methoxy)pyridin-3-yl)amino)-N-(2-fluoro-3-hydroxy-3-methylbutyl) nicotinamide]", "values": [{"measurement": "EC50", "setting": "TNFα; TNFα content", "value": 106, "unit": "nM"}, {"measurement": "IC50", "setting": "IRAK4 enzyme; TR-FRET (HTRF)", "value": 1, "unit": "nM"}]}, {"smiles": "CC(C)(O)[C@H](F)CNC(=O)c1cnc(-c2ccc3cc(C#N)cnn23)cc1NC1CC2(CCC2)C1", "note": "[Example 99, (R)-6-(3-cyanopyrrolo[1,2-b]pyridazin-7-yl)-N-(2-fluoro-3-hydroxy-3-methylbutyl)-4-(spiro[3.3]heptan-2-ylamino)nicotinamide]", "values": [{"measurement": "EC50", "setting": "TNFα; TNFα content", "value": 130, "unit": "nM"}, {"measurement": "IC50", "setting": "IRAK4 enzyme; TR-FRET", "value": 1, "unit": "nM"}]}, {"smiles": "COC(C)(C)CCNC(=O)c1cnc(-c2ccc3cc(C#N)cnn23)cc1NC(C)C", "note": "[Example 87, 6-(3-cyanopyrrolo[1,2-b]pyridazin-7-yl)-4-(isopropylamino)-N-(3-methoxy-3-methylbutyl)nicotinamide]", "values": [{"measurement": "EC50", "setting": "TNFα; TNFα content", "value": 160, "unit": "nM"}, {"measurement": "IC50", "setting": "IRAK4 enzyme; TR-FRET", "value": 1, "unit": "nM"}]}]}
